Source: publication PMC12386934, “Characteristics and Potential of KSL, KSL-W, and Dadapin-1 Antimicrobial Peptides for Preventing Infections of Orthopedic Prosthetic Devices: Identifying the Most Robust Candidate” (International Journal of Molecular Sciences, 2025)
≈ marks a conversion by molar mass, not a printed value. Where a SMILES comes first, the peptide text is derived from it.

How the values were obtained:
[1] = test system: S. epidermidis cra4029 (SE 02); assay type: cell-based
Text: The experimental scheme reported in Figure 6 helped to simplify and optimize the in vitro testing of the antibacterial activity of the different AMPs. The initial transparent microtiter plate for the determination of the minimum inhibitory concentration (MIC) by optical density (OD) measurement was conveniently used as a starting point not only for the alterative determination of the MIC by luminescence but also for the minimum bactericidal concentration (MBC) and for the minimum biofilm inhibitory concentration (MBIC), as explained below. For every test peptide, at least three independent experiments were performed on each bacterial strain per test condition (100% MHB and 20% MHB). The sole exception to this rule was when MIC values were on rare occasions found to be greater than 500 µg/mL. Under these circumstances, two consecutive experiments were performed to confirm the results. In this case, the antibacterial activity was considered insignificant and the third experiment was generally considered unnecessary.
The antibacterial properties of the test AMPs were assayed under two distinct conditions of bacterial culture: (i) with bacteria cultured in undiluted Mueller–Hinton II Broth (MHB II) and (ii) with bacteria cultured in diluted MHB II as earlier described in Campoccia et al.. Briefly, a few colonies of each bacterial strain, taken from overnight cultures on Mueller–Hinton Agar plates (MHA, PO50007A, ThermoScientific, Thermo Fisher Scientific, Segrate, Italy), were resuspended in Mueller–Hinton II Broth (MHB II, 24107, Liofilchem, Roseto degli Abruzzi, Italy), either undiluted or at a 20% dilution in deionized water. The concentration of bacteria was adjusted to approximately 10^8 CFU/mL, as estimated by optical density reading at 625 nm, using a Hewlett Packard G1103A spectrophotometer (Waldbronn, Germany). The bacterial suspension was further diluted 1:100 in 100% or 20% MHB II. […]
For assessing the MBC, 10 μL of bacterial suspensions was taken from wells corresponding to MIC, 2× MIC, and 4× MIC and then plated on MHA plates. […] The MBC was determined as the lowest dilution causing absence of bacterial colonies growth on the plate.
In order to assess the extent of the interference of the culture medium composition with the antibacterial activity of the three peptides, a “Rate of Abatement” of the bactericidal properties (RoA) was calculated using the following formula (Equation (1)):RoA = MBCMHB/MBC20% MHB(1)
RoA indicates the fold increases in the MBC when tested in undiluted medium […], i.e., with maximal interference of broth polyanionic substances, with respect to diluted medium […]. […] A more versatile measure to express the loss of activity was calculated as follows. […]

[2] = cited from earlier work
Text: In 2021, aiming at identifying AMPs for a possible application in the prevention or treatment of prosthetic orthopedic infections, our group conducted an extensive systematic review on known short-chain AMPs, primarily based on the Database of Antimicrobial Activity and Structure of Peptides (DBAASP). The choice of considering short-chain peptides was dictated by the potentially lower allergenic risk offered by small peptides. The query included all monomeric AMPs with a length spanning from 7 to 13 amino acids. The research results provided a list of 415 entries, which were then extend ...

With `CC(C)[C@H](NC(=O)[C@H](Cc1c[nH]c2ccccc12)NC(=O)[C@H](Cc1ccccc1)NC(=O)[C@@H](NC(=O)[C@@H](NC(=O)[C@H](CCCCN)NC(=O)[C@@H](N)CCCCN)C(C)C)C(C)C)C(=O)N[C@@H](CCCCN)C(=O)N[C@@H](Cc1ccccc1)C(=O)N[C@@H](CCCCN)C(=O)O` [KSL-W] (H-KKVVFWVKFK-OH) as the molecule, how does the MBC [1] read?
The MBC was 1.95 µg/mL (≈ 1.49 µM).

And the “stability to enzymic activity such as trypsin-catalyzed cleavage” value [2]?
Its value is “greater stability”.
